# Reference: patent US12473293B2, “Pharmacologically active heterocyclic-substituted pyrazolo[1,5-a]pyrimidine derivatives” (Richter Gedeon Nyrt., priority 2020, dated 2025)
# pEC50: −log10 of the molar value.
# Assays:
# male Wistar rats = assay: Foot shock-induced ultrasonic vocalization (USV) in adult rats; assay type: in vivo; settings: Rattus norvegicus, po, p.o., 1 h before shocking
# Description: Foot Shock-Induced Ultrasonic Vocalization (USV) in Adult Rats
# Under stressful conditions, adult rats emit 22 kHz ultrasounds that can be reduced by various pharmacological treatments (De Vry et al, Eur. J. Pharmacol. 1993, 249, 331-339; Sanchez, Eur. J. Pharmacol. 2003, 463, 133-143). […] Therefore, a foot shock-induced vocalization paradigm in adult rats was used to assess in vivo efficacy of centrally acting GABAB receptor ligands. Behavioral measurements were carried out on male Wistar rats (200-250 g, Toxicoop, Hungary or Janvier, France). Rats were housed in groups of four in plastic cages with a wire grid top in a temperature and light-controlled laboratory animal care unit (22±2° C., 12-h light/dark cycle, lights on at 6:00 AM) with ad libitum access to commercial pellet rat food and tap water. Investigations were approved by the Local Ethical Committee of Gedeon Richter Plc. and were carried out in strict compliance with the European Directive 2010/63/EU regarding the care and use of laboratory animals for experimental procedures and all efforts were made to minimize the number of animals as well as their suffering. In order to evoke emission of ultrasounds, animals were footshocked after a habituation period of 30 s (6 shocks, 1 s, 0.8 mA each, inter-shock interval 10 s) in a sound attenuated shocking chamber (Experimetria, 40×40×80 cm). […] Vocalizations were measured right after the last footshock for 10 min with a Metris Sonotrack system and the total time of vocalizations was registered. Vocalization of parallel vehicle treated animals was considered as control value and inhibition percent was calculated for each compound.
# In Table 2 compounds of this invention measured in the USV assay are listed.
# GABAB receptor = molecular target: T1, GABAB receptor (Rattus norvegicus, UniProt O88871+Q9Z0U4); assay: In vitro [35S]GTPγS binding assay in rat cortical membranes; assay type: biochemical; settings: PAM EC50, [35S]GTPγS binding, read-out: In vitro PAM potency
# T1 construct: from tissue; host or cells: rat brain cortex membranes
# Description: In Vitro [^35S]GTPγS Binding Assay in Rat Cortical Membranes
# Cortices of freshly harvested rat brains were dissected on an ice-cold surface and homogenized by a glass Dounce homogeniser immediately in ice-cold buffer containing 50 mM Tris, 5 mM MgCl2 and 1 mM EDTA (pH=7.6). Tissue homogenates were centrifuged at 40000 g for 15 min at 4° C. Membrane pellets were resuspended in the same buffer and membranes were incubated for 10 min at 30° C. in a shaking water bath to eliminate endogenous GABA. Homogenates were centrifuged again under the same conditions. The final pellets were resuspended in ice-cold buffer (pH=7.6) containing 50 mM Tris, 100 mM NaCl, 7 mM MgCl2, 1 mM EDTA and 1 mM dithiotreithol (DTT) to yield a concentration of 20 mg tissue weight/ml and frozen at −70° C. until use. The assay was done in a buffer containing 50 mM Tris (pH=7.4), 100 mM NaCl, 7 mM MgCl2, 1 mM EDTA and 1 mM DTT. Each assay tube contained 150 μL GDP (in a final concentration of 50 μM), 100 μL ligand and 125 μL of the membrane suspension ([…]). The assay tubes were preincubated for 10 min at 30° C. to assure equilibrium. Nonspecific binding was determined in the presence of 10 μM GTPγS; basal binding was determined in the presence of buffer only. After addition of […] [^35S]GTPγS in a volume of 25 μL to the tubes, membranes were incubated for an additional 60 min at 30° C. The assay was terminated by rapid filtration through Packard UniFilter GF/B using a Packard harvester and washed four times with 1 ml ice-cold buffer. After drying the filters at 40° C. for 1 h, 40 μL Microscint (Packard) was added to the filters and radioactivity of the filters was determined by a TopCount NXT (PerkinElmer, Waltham, MA; Alper and Nelson, Eur. J. Pharmacol. 1998, 343, 303-312; Rinken et al, Biochem. Pharmacol. 1999, 57, 155-162). Data thus gathered were used to determine PAM EC50 values for each compound as primary in vitro activity end point.
# In Table 1 compounds of this invention measured in the [^35S]GTPγS binding assay are listed.
# T1 sequence (O88871 41-940): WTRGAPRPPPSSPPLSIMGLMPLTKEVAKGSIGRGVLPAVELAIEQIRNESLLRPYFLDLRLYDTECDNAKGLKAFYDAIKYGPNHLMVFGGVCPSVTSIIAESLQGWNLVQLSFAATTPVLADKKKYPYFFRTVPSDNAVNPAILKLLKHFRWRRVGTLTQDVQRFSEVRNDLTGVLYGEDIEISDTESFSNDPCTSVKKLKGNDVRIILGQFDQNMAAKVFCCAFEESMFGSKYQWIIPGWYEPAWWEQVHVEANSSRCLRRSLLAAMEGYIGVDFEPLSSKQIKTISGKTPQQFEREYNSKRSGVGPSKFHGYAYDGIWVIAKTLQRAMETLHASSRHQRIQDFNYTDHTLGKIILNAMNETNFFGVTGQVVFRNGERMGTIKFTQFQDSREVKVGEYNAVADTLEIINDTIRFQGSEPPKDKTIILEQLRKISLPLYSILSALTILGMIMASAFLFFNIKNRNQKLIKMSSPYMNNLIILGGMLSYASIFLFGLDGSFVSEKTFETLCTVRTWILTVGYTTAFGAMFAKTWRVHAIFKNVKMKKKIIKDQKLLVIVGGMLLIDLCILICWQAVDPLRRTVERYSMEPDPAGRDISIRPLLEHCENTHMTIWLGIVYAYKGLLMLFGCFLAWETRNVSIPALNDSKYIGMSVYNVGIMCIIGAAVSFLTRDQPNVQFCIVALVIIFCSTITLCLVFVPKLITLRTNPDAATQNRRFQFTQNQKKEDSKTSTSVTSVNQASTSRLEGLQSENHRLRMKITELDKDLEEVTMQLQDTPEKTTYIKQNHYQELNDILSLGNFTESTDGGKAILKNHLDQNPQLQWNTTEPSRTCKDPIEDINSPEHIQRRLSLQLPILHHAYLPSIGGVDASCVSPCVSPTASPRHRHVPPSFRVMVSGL
# T1 sequence (Q9Z0U4 17-960 limits assumed): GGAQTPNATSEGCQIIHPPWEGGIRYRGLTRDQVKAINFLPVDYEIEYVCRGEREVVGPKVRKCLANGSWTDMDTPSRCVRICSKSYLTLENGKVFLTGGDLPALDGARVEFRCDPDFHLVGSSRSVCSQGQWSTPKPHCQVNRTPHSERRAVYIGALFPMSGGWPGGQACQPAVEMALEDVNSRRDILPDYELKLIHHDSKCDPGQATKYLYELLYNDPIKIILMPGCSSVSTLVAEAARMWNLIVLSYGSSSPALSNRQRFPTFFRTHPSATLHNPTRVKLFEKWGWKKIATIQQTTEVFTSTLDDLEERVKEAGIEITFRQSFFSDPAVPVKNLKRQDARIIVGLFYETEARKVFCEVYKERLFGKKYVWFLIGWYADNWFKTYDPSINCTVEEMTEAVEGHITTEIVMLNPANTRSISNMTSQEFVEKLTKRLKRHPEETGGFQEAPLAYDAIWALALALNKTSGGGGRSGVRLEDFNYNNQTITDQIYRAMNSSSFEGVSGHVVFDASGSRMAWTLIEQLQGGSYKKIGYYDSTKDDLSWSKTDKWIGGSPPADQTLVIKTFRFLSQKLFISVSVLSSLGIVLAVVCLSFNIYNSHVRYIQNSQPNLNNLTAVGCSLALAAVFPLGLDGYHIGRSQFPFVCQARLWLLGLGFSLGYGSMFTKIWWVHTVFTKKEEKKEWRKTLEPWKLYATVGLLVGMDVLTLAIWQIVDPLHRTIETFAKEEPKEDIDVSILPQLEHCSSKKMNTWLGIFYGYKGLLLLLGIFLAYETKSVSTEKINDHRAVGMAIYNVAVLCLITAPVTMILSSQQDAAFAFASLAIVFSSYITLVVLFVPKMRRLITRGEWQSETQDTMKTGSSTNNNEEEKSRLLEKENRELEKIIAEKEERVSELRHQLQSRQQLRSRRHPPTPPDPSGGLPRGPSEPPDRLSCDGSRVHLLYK
SMILES,pEC50 (GABAB receptor),inhibition in vivo at 3 mg/kg (male Wistar rats),inhibition in vivo at 1 mg/kg (male Wistar rats),inhibition in vivo at 10 mg/kg (male Wistar rats)
CC(=O)N1CC[C@H](C)[C@H](c2cc(C)nc3c(F)c([C@H]4CC[C@H](C(F)(F)F)CC4)nn23)C1 (racemic) [Example 158],6.00 to 7.00,35%,,
"COC(=O)N1CC[C@@H](C)[C@H](c2cc(C)nc3cc([C@H]4CC[C@H](C(F)(F)F)CC4)nn23)C1 (single isomer, unassigned) [Example 5]",> 7.00,,88%,
"Cc1cc([C@H]2CN(C=O)CC[C@H]2C)n2nc([C@H]3CC[C@H](C(F)(F)F)CC3)cc2n1 (single isomer, unassigned) [Example 9]",> 7.00,,71%,
CC(=O)N1CCC[C@@H](c2cc(C)nc3cc([C@H]4CC[C@H](C(F)(F)F)CC4)nn23)C1 [Example 32],6.00 to 7.00,68%,,
CCc1c(C)nc2cc([C@H]3CC[C@H](C(F)(F)F)CC3)nn2c1[C@@H]1CCCN(C(C)=O)C1 [Example 39],6.00 to 7.00,33%,,
CCc1c(C)nc2cc([C@H]3CC[C@H](C(F)(F)F)CC3)nn2c1[C@H]1CCCN(C(C)=O)C1 [Example 42],> 7.00,,,91%
CC(=O)N1CCC[C@H](c2c(C)c(C)nc3cc([C@H]4CC[C@H](C(F)(F)F)CC4)nn23)C1 [Example 43],6.00 to 7.00,,,41%
COC(=O)N1CCC[C@@H](c2c(C)c(C)nc3cc([C@H]4CC[C@H](C(F)(F)F)CC4)nn23)C1 [Example 47],6.00 to 7.00,,,63%
Cc1nc2cc([C@H]3CC[C@H](C(F)(F)F)CC3)nn2c([C@@H]2CN(C=O)CC[C@@H]2C)c1C [Example 58],> 7.00,,44%,
CCc1c(C)nc2cc([C@H]3CC[C@H](C(F)(F)F)CC3)nn2c1[C@@H]1CN(C(C)=O)CC[C@@H]1C [Example 66],> 7.00,,49%,
Cc1cc([C@H]2CN(C=O)CC[C@@H]2C)n2nc([C@H]3CC[C@H](C(F)(F)F)CC3)cc2n1 [Example 68],> 7.00,,39%,
Cc1nc2cc([C@H]3CC[C@H](C(F)(F)F)CC3)nn2c(C2CN(C=O)CC(F)(F)C2)c1C (some centres unmarked) [Example 75],> 7.00,,19%,
CCc1c(C)nc2cc([C@H]3CC[C@H](C(F)(F)F)CC3)nn2c1C1CN(C=O)CCO1 (some centres unmarked) [Example 82],> 7.00,,86%,
CCOC(=O)N1CCC[C@H](c2cc(C)nc3cc([C@H]4CC[C@H](C(F)(F)F)CC4)nn23)[C@@H]1C [Example 107],5.00 to 6.00,,,
COC(=O)N1CCO[C@@H](c2cc(C)nc3c(F)c([C@H]4CC[C@H](C(F)(F)F)CC4)nn23)C1 [Example 117],> 7.00,,73%,
COC(=O)N1C[C@@H](c2cc(C)nc3cc([C@H]4CC[C@H](C(F)(F)F)CC4)nn23)OC[C@@H]1C(C)C [Example 122],6.00 to 7.00,,,
"COC(=O)N1CCSC(c2cc(C)nc3cc([C@H]4CC[C@H](C(F)(F)F)CC4)nn23)C1 (stereo partly drawn) [Example 126, methyl 2-{5-methyl-2-[trans-4-(trifluoromethyl)cyclohexyl]pyrazolo[1,5-a]pyrimidin-7-yl}thiomorpholine-4-carboxylate]",6.00 to 7.00,,,
COC(=O)N1C[C@H](c2cc(C)nc3cc([C@H]4CC[C@H](C(F)(F)F)CC4)nn23)OC[C@@H]1C(C)C [Example 127],6.00 to 7.00,,,
COC(=O)N1CC[C@@H](C)[C@H](c2cc(C)nc3c(F)c([C@H]4CC[C@H](C(F)(F)F)CC4)nn23)C1 [Example 128],5.00 to 6.00,,,
COC(=O)N1CC[C@H](C)[C@@H](c2cc(C)nc3c(F)c([C@H]4CC[C@H](C(F)(F)F)CC4)nn23)C1 [Example 129],6.00 to 7.00,,,
COC(=O)N1CCO[C@H](c2cc(C)nc3c(F)c([C@H]4CC[C@H](C(F)(F)F)CC4)nn23)C1 [Example 130],6.00 to 7.00,,,

# More lines, main results first:
pEC50 (GABAB receptor),SMILES,inhibition in vivo at 3 mg/kg (male Wistar rats),inhibition in vivo at 1 mg/kg (male Wistar rats),inhibition in vivo at 10 mg/kg (male Wistar rats)
> 7.00,COC(=O)N1CCO[C@@H](c2cc(C)nc3cc([C@H]4CC[C@H](C(F)(F)F)CC4)nn23)C1 [Example 91],,89%,
6.00 to 7.00,COC(=O)N1C[C@H](c2cc(C)nc3cc([C@H]4CC[C@H](C(F)(F)F)CC4)nn23)OC[C@H]1C [Example 106],,,
6.00 to 7.00,Cc1cc([C@H]2CN(C=O)[C@H](C)CO2)n2nc([C@H]3CC[C@H](C(F)(F)F)CC3)cc2n1 [Example 108],,,
6.00 to 7.00,CC(=O)N1CCO[C@@H](c2cc(C)nc3cc([C@H]4CC[C@H](C(F)(F)F)CC4)nn23)C1 [Example 109],,,
5.00 to 6.00,COC(=O)N1C[C@@H](c2cc(C)nc3cc([C@H]4CC[C@H](C(F)(F)F)CC4)nn23)OC[C@H]1C [Example 110],,,
6.00 to 7.00,CNC(=O)N1CCO[C@@H](c2cc(C)nc3cc([C@H]4CC[C@H](C(F)(F)F)CC4)nn23)C1 [Example 111],,44%,
6.00 to 7.00,Cc1cc([C@H]2CN(C(=O)N(C)C)CCO2)n2nc([C@H]3CC[C@H](C(F)(F)F)CC3)cc2n1 [Example 112],,72%,
6.00 to 7.00,Cc1cc([C@H]2CN(C(=O)c3cocn3)CCO2)n2nc([C@H]3CC[C@H](C(F)(F)F)CC3)cc2n1 [Example 113],,66%,
6.00 to 7.00,Cc1cc([C@H]2CN(C(=O)c3cnco3)CCO2)n2nc([C@H]3CC[C@H](C(F)(F)F)CC3)cc2n1 [Example 114],,,
6.00 to 7.00,CCOC(=O)N1CCO[C@@H](c2cc(C)nc3cc([C@H]4CC[C@H](C(F)(F)F)CC4)nn23)C1 [Example 116],,0%,
6.00 to 7.00,Cc1cc([C@H]2CN(C(=O)c3cncs3)CCO2)n2nc([C@H]3CC[C@H](C(F)(F)F)CC3)cc2n1 [Example 118],,,
6.00 to 7.00,Cc1cc([C@H]2CN(S(C)(=O)=O)CCO2)n2nc([C@H]3CC[C@H](C(F)(F)F)CC3)cc2n1 [Example 119],,,
6.00 to 7.00,Cc1cc([C@H]2CN(S(=O)(=O)N(C)C)CCO2)n2nc([C@H]3CC[C@H](C(F)(F)F)CC3)cc2n1 [Example 120],,,
6.00 to 7.00,Cc1cc([C@H]2CN(C(=O)c3cscn3)CCO2)n2nc([C@H]3CC[C@H](C(F)(F)F)CC3)cc2n1 [Example 121],,,
6.00 to 7.00,Cc1cc([C@H]2CN(C(=O)c3nnc(C)o3)CCO2)n2nc([C@H]3CC[C@H](C(F)(F)F)CC3)cc2n1 [Example 123],,,
≤ 5.00,COC(=O)N1C[C@@H](c2cc(C)nc3cc([C@H]4CC[C@H](C(F)(F)F)CC4)nn23)O[C@@H](C)C1 [Example 124],,,
6.00 to 7.00,COC(=O)N1C[C@H](C)O[C@@H](c2cc(C)nc3cc([C@H]4CC[C@H](C(F)(F)F)CC4)nn23)C1 [Example 125],,,
> 7.00,COC(=O)N1CCO[C@@H](c2cc(C)nc3cc([C@H]4CC[C@H](C(C)(C)C)CC4)nn23)C1 [Example 132],,65%,
